Test results taken from patent publication US11331299B2, “Medicinal use of serrulatane diterpenes” (The University of Sydney, priority 2016, dated 2022).
Where two headings read alike, the source gives them in different places.

Test system: 280 human cancer cell lines
Assay: OncoPanel cell proliferation assay (10-day)
Assay type: cell-based
Conditions: Homo sapiens; for GI50: read-out: Cell Count GI50; for IC50: read-out: Cell Count IC50; for EC50: read-out: Cell Count EC50
[1] = KHOS-240S, Soft Tissue - Osteosarcoma
[2] = ME-180, ME-180, Female GU - Ovary
[3] = MG-63, MG-63, Soft Tissue - Osteosarcoma
[4] = MHH-PREB-1, MHH-PREB-1, Leukemia
[5] = MIA PaCa-2, Mia PaCa-2, Pancreas
[6] = MS751, MS751, Female GU - Ovary
[7] = Malme-3M, MALME3M, Skin (Melanoma)

CC(C)=CCC[C@H](CO)[C@@H]1CC[C@@H](C)c2c1cc(C)c(O)c2O [Compound 1, 7,8,18-trihydroxyserrulat-14-ene]
GI50 [1]: 0.95 µM | IC50 [1]: 0.95 µM | EC50 (KLE, Female GU - Uterus): 3.7 µM | GI50 (KLE, Female GU - Uterus): 3.56 µM | IC50 (KLE, Female GU - Uterus): 3.82 µM | EC50 (KPL-1, KPL-1, Breast): 0.81 µM | GI50 (KPL-1, KPL-1, Breast): 0.81 µM | IC50 (KPL-1, KPL-1, Breast): 0.81 µM | EC50 (KU812, KU812, Leukemia): 2.81 µM | GI50 (KU812, KU812, Leukemia): 2.57 µM | IC50 (KU812, KU812, Leukemia): 2.81 µM | EC50 (L-428, L-428, Lymphoma): 1.08 µM | GI50 (L-428, L-428, Lymphoma): 1.08 µM | IC50 (L-428, L-428, Lymphoma): 1.09 µM | EC50 (LNCaP, Prostate): 3.9 µM | GI50 (LNCaP, Prostate): 3.47 µM | IC50 (LNCaP, Prostate): 3.9 µM | EC50 (LS-123, LS123, Colon): 1.13 µM | GI50 (LS-123, LS123, Colon): 1.03 µM | IC50 (LS-123, LS123, Colon): 1.16 µM | EC50 (LS-411N, LS411N, Colon): 8.72 µM | GI50 (LS-411N, LS411N, Colon): 8.51 µM | IC50 (LS-411N, LS411N, Colon): 8.72 µM | EC50 (LS-1034, LS1034, Colon): 1.87 µM | GI50 (LS-1034, LS1034, Colon): 1.83 µM | IC50 (LS-1034, LS1034, Colon): 1.87 µM | EC50 (M059J, CNS - Glioma): 3.09 µM | GI50 (M059J, CNS - Glioma): 3.02 µM | IC50 (M059J, CNS - Glioma): 3.09 µM | EC50 (MC116, MC116, Lymphoma): 3.79 µM | GI50 (MC116, MC116, Lymphoma): 3.78 µM | IC50 (MC116, MC116, Lymphoma): 3.79 µM | EC50 (MC-IXC, CNS - Neuroblastoma): 4.01 µM | GI50 (MC-IXC, CNS - Neuroblastoma): 4 µM | IC50 (MC-IXC, CNS - Neuroblastoma): 4.01 µM | EC50 (MCF7, MCF7, Breast): 1.37 µM | GI50 (MCF7, MCF7, Breast): 1.35 µM | IC50 (MCF7, MCF7, Breast): 1.37 µM | EC50 (MDA-MB-231, MDA MB 231, Breast): 1.47 µM | GI50 (MDA-MB-231, MDA MB 231, Breast): 1.47 µM | IC50 (MDA-MB-231, MDA MB 231, Breast): 1.48 µM | EC50 (MDA-MB-436, MDA-MB-436, Breast): 2.68 µM | GI50 (MDA-MB-436, MDA-MB-436, Breast): 2.67 µM | IC50 (MDA-MB-436, MDA-MB-436, Breast): 2.69 µM | EC50 (MDA-MB-453, MDA MB 453, Breast): 0.78 µM | GI50 (MDA-MB-453, MDA MB 453, Breast): 0.77 µM | IC50 (MDA-MB-453, MDA MB 453, Breast): 0.78 µM | EC50 (MDA-MB-468, MDA MB 468, Breast): 2.75 µM | GI50 (MDA-MB-468, MDA MB 468, Breast): 2.74 µM | IC50 (MDA-MB-468, MDA MB 468, Breast): 2.76 µM | EC50 [2]: 2.25 µM | GI50 [2]: 2.21 µM | IC50 [2]: 2.26 µM | EC50 (MEG-01, MEG01, Leukemia): 7.35 µM | GI50 (MEG-01, MEG01, Leukemia): 7.22 µM | IC50 (MEG-01, MEG01, Leukemia): 7.35 µM | EC50 (MES-SA, Soft Tissue - Sarcoma): 1.23 µM | GI50 (MES-SA, Soft Tissue - Sarcoma): 1.22 µM | IC50 (MES-SA, Soft Tissue - Sarcoma): 1.23 µM | EC50 [3]: 9.24 µM | GI50 [3]: 9.16 µM | IC50 [3]: 9.24 µM | EC50 [4]: 6.17 µM | GI50 [4]: 6.17 µM | IC50 [4]: 6.17 µM | EC50 [5]: 2.97 µM | GI50 [5]: 2.97 µM | IC50 [5]: 2.97 µM | EC50 (MOLT-3, MOLT-3, Leukemia): 2.13 µM | GI50 (MOLT-3, MOLT-3, Leukemia): 2.11 µM | IC50 (MOLT-3, MOLT-3, Leukemia): 2.13 µM | EC50 (MOLT-16, MOLT-16, Leukemia): 1.84 µM | GI50 (MOLT-16, MOLT-16, Leukemia): 1.84 µM | IC50 (MOLT-16, MOLT-16, Leukemia): 1.84 µM | EC50 [6]: 2.23 µM | GI50 [6]: 2.21 µM | IC50 [6]: 2.23 µM | EC50 (MT-3, Colon): 3.67 µM | GI50 (MT-3, Colon): 3.66 µM | IC50 (MT-3, Colon): 3.67 µM | EC50 (MV4-11, MV-4-11, Leukemia): 3.58 µM | GI50 (MV4-11, MV-4-11, Leukemia): 3.57 µM | IC50 (MV4-11, MV-4-11, Leukemia): 3.58 µM | EC50 (MX1, Leukemia): 1.29 µM | GI50 (MX1, Leukemia): 1.29 µM | IC50 (MX1, Leukemia): 1.29 µM | EC50 [7]: 1.79 µM | GI50 [7]: 1.66 µM | IC50 [7]: 1.79 µM | EC50 (MeWo, Skin (Melanoma)): 1.32 µM | GI50 (MeWo, Skin (Melanoma)): 1.31 µM | IC50 (MeWo, Skin (Melanoma)): 1.32 µM | EC50 (NALM-6, NALM-6, Leukemia): 1.81 µM | GI50 (NALM-6, NALM-6, Leukemia): 1.81 µM | IC50 (NALM-6, NALM-6, Leukemia): 1.81 µM | EC50 (NAMALWA, Lymphoma): 3.39 µM | GI50 (NAMALWA, Lymphoma): 3.39 µM | IC50 (NAMALWA, Lymphoma): 3.39 µM | EC50 (NCI-H69, NCI-H69, Lung - SCLC): 6.3 µM | GI50 (NCI-H69, NCI-H69, Lung - SCLC): 5.84 µM | IC50 (NCI-H69, NCI-H69, Lung - SCLC): 6.44 µM
